The values below come from US20230355599A1, “BIOMARKERS FOR CBL, AND COMPOSITIONS AND METHODS FOR THEIR USE” (NURIX THERAPEUTICS, INC., priority 2022, published 2023).

The test system of this test is phosphorylated HS1. As to the kind of experiment: Phosphorylated HS1 in circulating CD8+ T cells after oral dosing of cynomolgus monkeys (flow cytometry, ex vivo anti-CD3/CD28 stimulation). The procedure: To assess these proximal biomarkers of Cbl-b inhibition on CD8^+ T cells, pharmacodynamic analysis was performed in conjunction with a pharmacokinetic study conducted at Charles River Laboratories. Circulating blood was obtained from cynomolgus monkeys treated with 0.3, 1, 3 or 10 mg/kg of Compound 23 after a single dose and after 3 doses. The response to Cbl-b inhibition on proximal biomarkers (pHS1, pPLCγ2, and pZAP70) was measured in CD8^+ T cells using flow cytometry. This technique is highly quantitative and can measure multiple phosphorylation markers in different cell populations within the same sample.
Compound 23 was formulated in vehicle (0.2% Tween 80 in DI water+1 eq HCL) and aliquoted into individual (not serially diluted) dosing solutions of 0.3, 1, 3 and 10 mg/mL by stirring for 5-10 min, vortexing, and sonicating again as necessary to produce an even suspension that was stirred constantly at 4° C. to achieve and maintain a homogenous suspension. To prepare vehicle, 0.2% Tween 80 in deionized (DI) water, water was measured into a beaker with continuous stirring. Tween 80 was added sequentially, and stirring continued until the solution dissolved; the solution was stored at 2-8° C.
For pharmacodynamic analysis, whole blood was obtained from cynomolgus monkeys and used for flow cytometry assays to evaluate phosphorylated biomarkers, pHS1, pPLCγ2, and pZAP70, in circulating CD8^+ T cells.
On the day of dosing, blood samples were collected via femoral venipuncture in accordance with test facility standard operating procedures. 1 mL/tube of whole blood was collected pre-dose (time 0) and at 0.5, 1, 2, 4, 6, and 24 hours post-dose and added into 2 types of TruCulture tubes (Myriad) for pharmacodynamic analysis. One tube contained media alone and is denoted as “Null”, and the second tube contained 2 μg/mL anti-CD3 and anti-CD28, which were prepared at Nurix prior to the study using cynomolgus specific anti-CD3 (BD Biosciences; SP34-2) and anti-CD28 (Bio X cell; CD28.2) and denoted as “CD3/CD28”. Tubes were shipped by overnight courier on cold pack the day of collection and analyzed for phosphorylated biomarkers of Cbl-b inhibition by flow cytometry.
Following PD collection, upon receipt of TruCulture tubes, each tube was inverted 5-6 times to ensure a mixed suspension of blood. 30 μg of goat anti-mouse IgG (H+L) antibody (Invitrogen) was added to cross-link the stimulation antibodies and induce synchronized cellular stimulation. Cells were stimulated for 60 minutes alongside non-stimulated controls for each time point.
All buffers (Phosflow Lyse/Fix Buffer 5×, Phosflow Perm Buffer I; BD Biosciences) were prepared according to the manufacturer's instructions. After 60 minutes of goat anti-mouse IgG (H+L) antibody stimulation, one volume of blood was mixed with 20 volumes of pre-warmed BD Phosflow Lyse/Fix Buffer (1×) by repeated pipetting (8-10 times), then incubated in a 37° C. water bath for 10 min. Cells were washed and centrifuged at 500×g for 5 min (2×) with PBS. Following centrifugation, cell pellets were resuspended in cold BD Phosflow Perm Buffer I (BD) and incubated at 4° C. for 20 min. […]
On the technique in general: In flow cytometry, cells or beads pass a laser one at a time.

Each structure is given as a SMILES string.

For the compound `C[C@H]1CCCN(Cc2cc3c(c(C(F)(F)F)c2)CN(c2cccc([C@]4(c5nncn5C)C[C@@H](C)C4)c2)C3=O)C1` [Compound 23], the “phosphorylated HS1 in comparison to baseline” value (multiple doses of 10 mg/kg, 3 days of daily oral dosing) is given as “significant increases” and the “phosphorylated HS1 in comparison to baseline” value (single dose oral 10 mg/kg, circulating CD8+ T cells, anti-CD3/CD28 stimulated) is reported as “significant increases”. Further, the “time of peak increase of phosphorylated HS1” value (multiple doses of 10 mg/kg, 4 hours post dose) amounted to 76 h. In addition, for the setting “single dose oral 10 mg/kg”, the “time of maximal signal, phosphorylated HS1” value is reported as 2 hours post dose. The “phosphorylated HS1 sustained after 24 hours” value (single dose oral 10 mg/kg, after 24 hours) was “significant increase”.
